The source of these data is ChEMBL document CHEMBL1155562, “Workup-dependent formation of 5-lipoxygenase inhibitory boswellic acid analogues” (J Nat Prod, 2000).

The target of the experiment is T1, Polyunsaturated fatty acid 5-lipoxygenase (Homo sapiens, UniProt P09917).
T1 sequence (P09917 whole entry): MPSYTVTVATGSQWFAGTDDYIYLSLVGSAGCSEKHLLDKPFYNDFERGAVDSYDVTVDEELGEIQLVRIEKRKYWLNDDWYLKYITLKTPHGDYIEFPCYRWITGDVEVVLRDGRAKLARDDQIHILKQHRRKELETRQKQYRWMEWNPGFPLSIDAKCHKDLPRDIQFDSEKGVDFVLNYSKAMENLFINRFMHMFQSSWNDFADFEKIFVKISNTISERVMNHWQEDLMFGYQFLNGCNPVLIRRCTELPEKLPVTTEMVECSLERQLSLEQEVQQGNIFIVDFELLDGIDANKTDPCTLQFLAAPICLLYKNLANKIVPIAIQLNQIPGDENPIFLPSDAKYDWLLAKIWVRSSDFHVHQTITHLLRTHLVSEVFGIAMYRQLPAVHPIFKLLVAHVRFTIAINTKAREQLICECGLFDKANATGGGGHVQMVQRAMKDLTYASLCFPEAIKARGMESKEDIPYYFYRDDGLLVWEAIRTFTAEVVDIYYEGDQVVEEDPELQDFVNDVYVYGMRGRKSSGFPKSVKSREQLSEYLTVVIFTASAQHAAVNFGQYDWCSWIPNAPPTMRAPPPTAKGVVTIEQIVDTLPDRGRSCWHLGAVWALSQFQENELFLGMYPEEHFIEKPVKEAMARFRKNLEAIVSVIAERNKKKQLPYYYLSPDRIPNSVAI
The experiment in a line: Inhibition of lipoxygenase 5 product formation from endogenous substrate in Calcium and ionophore-stimulated polymorphonuclear leukocyte.
For the compound `CC(=O)O[C@@H]1CC[C@]2(C)C3=CC=C4[C@@H]5[C@@H](C)[C@H](C)CC[C@]5(C)CC[C@@]4(C)[C@]3(C)CC[C@H]2[C@@]1(C)C(=O)O`, the IC50 stood at 750 nM.
Consider `C[C@H]1[C@H](C)CC[C@]2(C)CC[C@]3(C)C(=CC(=O)[C@@H]4[C@@]5(C)CC[C@@H](O)[C@](C)(C(=O)O)[C@@H]5CC[C@]43C)[C@H]12` [11-KETO BOSWELLIC ACID], for which the IC50 worked out at 3000 nM.
With `CC(=O)O[C@@H]1CC[C@@]2(C)[C@@H](CC[C@]3(C)[C@@H]2C(=O)C=C2[C@@H]4[C@@H](C)[C@H](C)CC[C@]4(C)CC[C@]23C)[C@@]1(C)C(=O)O` [AKBA], the concentration for half-maximal inhibition (IC50) came out at 2700 nM.

What is called IC50 is the concentration at which inhibition is half-maximal.
